Consider three molecules from patent publication US3980779A, “3-Amino-1,2,4-benzotriazine-1,4-di-N-oxide compositions and method of using same” (Bayer Aktiengesellschaft, priority 1972, dated 1976).

Converted amounts (≈) assume the structure as drawn. Like-named read-outs stand apart in the source and are kept apart here.

One assay has as its system Streptococcus pyogenes W. In words: MIC plate test. The assay is classed as cell-based. The following applies: nutrient medium, 37°C, 24 hours. From the text: (§1) The antimicrobial activity of these compounds can be conveniently observe in in vitro and in vivo models. For example, their minimum inhibitory concentration (MIC) can be determined in the plate test on a complete nutrient base of the following composition: 10 g of proteose-peptone, 10 g of veal infusion, 2 g of dextrose, 3 g of sodium chloride, 2 g of disodium phosphate, 1 g of sodium acetate, 0.01 g of adenine sulfate, 0.01 g of guanine hydrochloride, 0.01 g of uracil, 0.01 g of xantine, 12 g of agar-agar and 1 liter of water. With an incubation temperature of 37°C and an incubation time of 24 hours, the following typical values can be observed: […]

Assay [1] concerns Pseudomonas aeruginosa BONN. In words: MIC plate test. The assay is classed as cell-based. The following applies: nutrient medium, 37°C, 24 hours.
Text: as §1

For a further assay, the system named is Proteus vulgaris 1017. As to the kind of experiment: MIC plate test. The assay is classed as cell-based. Particulars: nutrient medium, 37°C, 24 hours.
Text: as §1

Assay [2] has as its system Staphylococcus aureus 133. In words: MIC plate test. The class given is cell-based. The following applies: nutrient medium, 37°C, 24 hours.
Text: as §1

The next assay relates to Pseudomonas aeruginosa W. In words: MIC plate test. The assay is classed as cell-based. The following applies: nutrient medium, 37°C, 24 hours.
Text: as §1

In another assay the test system is Klebsiella 8085. In words: MIC plate test. The assay is classed as cell-based. The following applies: nutrient medium, 37°C, 24 hours.
Text: as §1

Another assay concerns Klebsiella 63. In words: MIC plate test. The class given is cell-based. Particulars: nutrient medium, 37°C, 24 hours.
Text: as §1

Assay [3] deals with Staphylococcus aureus 133. As to the kind of experiment: in vivo infection of white mice, subcutaneous administration. Particulars: 15 minutes before intraperitoneal infection, 24 hours later. From the text: (§2) The above in vitro data are confirmed in in vivo infections.
In another assay the test system is E. coli A 261. As to the kind of experiment: MIC plate test. The class given is cell-based, Escherichia coli. Particulars: 37°C, 24 hours.
Text: as §1

In a further assay the test system is E. coli C 165. In words: MIC plate test. The assay is classed as cell-based, Escherichia coli. Particulars: 37°C, 24 hours.
Text: as §1

Assay [4] in a line: growth promoting activity and fodder utilisation in chicken. The assay is classed as in vivo. The following applies: 10 PPM in fodder. The procedure: The growth promoting activity of the new compounds and their effectiveness in improving the fodder utilisation may be illustrated by the following data:
Test animals : chicken (kept in cages, with complete fodder and water ad libitum)
The active ingredient is mixed in a finely divided form to the fodder according to customary methods. The tests were performed with 12 animals in each tested group.
Active ingredient: compound of Example 4
Concentration of the active ingredient in the fodder: […]

The subject of the next assay is E.coli C 165. In words: in vivo infection of white mice, subcutaneous administration. Particulars: 15 minutes before intraperitoneal infection, 24 hours later.
Text: as §2

As to “isomeric mixture of 6-chloro- and 7-chloro-3-amino-1,2,4-benzotriazine-1,4-di-N-oxide [Compound B]”, the MIC in the assay on Streptococcus pyogenes W is 8 µg/mL; in assay [1], 128 µg/mL; against Proteus vulgaris 1017 it was 4 µg/mL; in [2], 8 µg/mL; against Pseudomonas aeruginosa W, 128 µg/mL; in the assay with Klebsiella 8085, 1 µg/mL. The MIC with Klebsiella 63, in the assay with E. coli A 261 (nutrient medium) and in the assay on E. coli C 165 (nutrient medium) was 8 µg/mL throughout. This molecule also registered a 50% effective dose (ED50) in assay [3] of 250 mg/kg.
As for “isomeric mixture of 6-methoxy and 7-methoxy-3-amino-1,2,4-benzotriazine-1,4-di-N-oxide [Compound C]”, the MIC is 4 µg/mL with Streptococcus pyogenes W; 32 µg/mL in [1]; 1 µg/mL in the assay with Proteus vulgaris 1017; 4 µg/mL in [2]; 64 µg/mL in the assay on Pseudomonas aeruginosa W; 1 µg/mL against Klebsiella 8085. Besides, the MIC in the assay on Klebsiella 63, with E. coli A 261 (nutrient medium) and with E. coli C 165 (nutrient medium) was 2 µg/mL each time. Also, the “Consumption of fodder in relation to the control group” value in assay [4] (week 0) worked out at 100%; in assay [4] (week 1) it was 85.7%; in assay [4] (week 2) it was 90.4%; in [4] (week 3), 93.4%; in assay [4] (week 4), 98.5%; in assay [4] (week 5) it was 101.1%. Moreover, the “Consumption of fodder in relation to the control group” value in assay [4] (week 6) is listed as 92.2%. The “Weight increase in relation to the control group” value worked out at 100% in assay [4] (week 0); 102.8% in assay [4] (week 1); 109.0% in assay [4] (week 2); 105.8% in assay [4] (week 3); 110.4% in assay [4] (week 4); 106.4% in assay [4] (week 5). Further, the “Weight increase in relation to the control group” value in assay [4] (week 6) turned out to be 106.0%. Besides, the “weight increase (all animals)” value in assay [4] (week 0) was determined as 75 gram; in assay [4] (week 1), 148.4 gram; in [4] (week 2) it was 276.7 gram; in assay [4] (week 3), 475.0 gram; in [4] (week 4), 761.8 gram; in assay [4] (week 5), 1019.1 gram. Further, in assay [4] (week 6), the “weight increase (all animals)” value stood at 1296.4 gram. For the same molecule, the figures for the ED50 (in the assay with E.coli C 165; in assay [3]) were 25 mg/kg and 40 mg/kg, respectively.
Regarding `Nc1n[n+]([O-])c2ccccc2[n+]1[O-]` [Compound A, 3-amino-1,2,4-benzotriazine-1,4-di-N-oxide], the minimal inhibitory concentration (MIC) was determined as 32 µg/mL (≈ 180 µM) with Streptococcus pyogenes W (read-out: MIC); 8 µg/mL (≈ 44.9 µM) in assay [1] (read-out: MIC); 2 µg/mL (≈ 11.2 µM) with Proteus vulgaris 1017 (read-out: MIC); 16 µg/mL (≈ 89.8 µM) in [2] (read-out: MIC); 64 µg/mL (≈ 359 µM) in the assay with Pseudomonas aeruginosa W (read-out: MIC); 2 µg/mL (≈ 11.2 µM) with Klebsiella 8085 (read-out: MIC). The MIC in the assay with Klebsiella 63 (read-out: MIC) was 4 µg/mL (≈ 22.5 µM); in the assay with E. coli A 261 (Escherichia coli, A261, nutrient medium, read-out: MIC), 4 µg/mL (≈ 22.5 µM); in the assay on E. coli C 165 (Escherichia coli, C165, nutrient medium, read-out: MIC), 4 µg/mL (≈ 22.5 µM). Moreover, the ED50 in the assay on E.coli C 165 (Escherichia coli, C165, sc, read-out: ED50) is 20 mg/kg.

As a reminder, the MIC is the least concentration at which growth counts as inhibited. Usually ED50 stands for the midpoint of the dose-response relation.
